{"source": "patent US20220280607A1", "about": "“Treatment of Heart Defects and Conditions in Pediatric Patients” (University of Pittsburgh - Of the Commonwealth System of …, priority 2019, published 2022)", "key": {"[1]": {"test_system": "human fetal cardiomyocytes", "experiment": "Cytokinesis failure in cultured human fetal cardiomyocytes (β-adrenergic receptor signaling pathway studies)", "format": "cell-based", "description": "Primary cardiomyocyte culture experiments: Neonatal (mouse or rat) cardiomyocytes or human fetal cardiomyocytes were plated in 4-well chamber slides pre-coated with fibronectin (10 μg/ml) at a density of 200,000 cells/well and cultured with DMEM/high glucose (for mouse and rat cardiomyocytes) or IMDM (for fetal human cardiomyocytes) containing 10% fetal bovine serum (FBS) and recombinant neuregulin 1 (rNRG1, 100 nanograms per milliliter (ng/ml)) overnight. All treatments and BrdU (30 micromolar (μM)) were added on the next day.\nβ-adrenergic receptor signaling pathway studies: Forskolin (10 μM), propranolol (10 μM), dobutamine (10 μM), or a combination of propranolol (10 μM) and dobutamine (10 μM) were added to the culture from day 1 to day 3. The cells were collected for examining gene expression or immunofluorescence microscopy at day 3.\nCardiomyocytes cultured on glass surfaces. […] The BrdU-positive nuclei, cell-cell boundaries (Pan-Cadherin antibody), and cardiomyocyte markers (α-actinin or troponin I antibody) were labeled by immunofluorescence. The stained cells were imaged under Nikon confocal microscope. The binucleated cardiomyocytes and all BrdU-positive cardiomyocytes were quantified using Fiji software."}, "[2]": {"test_system": "cardiomyocytes from infants with ToF/PS", "experiment": "ToF/PS myocardium tissue (organotypic) culture: binucleated BrdU-labeled cardiomyocytes", "format": "cell-based, human", "settings": "propranolol 10 μM + dobutamine 10 μM, ToF/PS organotypic cultures, FIG. 14E", "description": "ToF/PS myocardium tissue culture: Discarded myocardium samples were collected during ToF/PS surgery, cut into ˜1 mm^3 tissue blocks, and cultured in IMDM media containing 10% FBS, recombinant neuregulin 1 (rNRG1, 100 ng/ml), and BrdU (30 μM) for 6 days. Samples were treated with forskolin (10 μM), propranolol (10 μM), dobutamine (10 μM), or a combination of propranolol (10 μM) and dobutamine (10 μM).\nCultured ToF/PS myocardium. Cardiomyocytes were isolated from cultured myocardium with the fixation-digestion method. After denaturing the DNA with 2N HCl and neutralization with 2 Normal (N) sodium hydroxide (NaOH), immunofluorescence antibody labeling was performed in solution. The proportion of binucleated and BrdU-positive was quantified with a Nikon A1R microscope."}, "[3]": {"test_system": "adult mouse heart after myocardial infarction", "experiment": "Neonatal propranolol treatment followed by adult baseline analysis and myocardial infarction (LAD ligation) with cardiac MRI, AFOG histology and stereology", "format": "in vivo", "description": "Mouse myocardial injury model: ICR mice were treated with propranolol (10 μg/g, 2 i.p. injections/day) from P1 to P12. Then, cardiac injury was induced to male mice via performing left anterior descending artery (LAD) ligation at the age of P40 to P60. Briefly, the mice were anesthetized with 4% isoflurane, intubated, and ventilated with a stroke volume of 225 microliters (μl) at 145 breaths/minute. The hearts were exposed by performing thoracotomy and the LAD coronary artery was tied with 8-0 nylon suture. After the chest was […] with 6-0 suture, bupivacaine (8 μg/g) was locally administered through subcutaneous injection. The mice were kept intubated without isoflurane at room temperature until waking up from the anesthesia. Bupivacaine (8 μg/g) was administered by subcutaneous injection in the following 3 days (1 day post injury (dpi) to 3 dpi). The heart function after LAD ligation was measured by cardiac MRI at 1-3 days post injury (dpi, acute injury period) and 10-12 dpi (recovery period), respectively.\nQuantification of cardiomyocytes with unbiased stereology: Mouse hearts were washed in cardioplegia solution (PBS, […] potassium chloride (KCl)), weighed, and fixed with 3.7% formaldehyde at room temperature overnight. The hearts were then placed in 30% sucrose at 4° C. for 48 hours. The atria were cut off and the ventricles were embedded in OCT and sectioned on a Leica CM1950 cryostat in cross-sectional orientation (thickness 15 μm), resulting in 75-80 slides/heart with 4 sections each. For random systematic sampling we used a random number generator ranging between […] to determine the first slide and then selected every 17th slide for staining. Myocardial volume and scar were quantified by point count method on AFOG-stained sections. Briefly, tissue sections were stained with Acid fuchsin-orange G (AFOG; Polizzotti et al.) and photomicrographs were taken on a Leica MZ26 dissector microscope (objective lens 10×). Areas of myocardium (red after AFOG staining) and scar (blue after AFOG staining) were quantified using ImageJ (version 1.51s). The image was overlaid with a grid to determine area per point. The distance between selected sections was calculated (17th slide×4 sections/slide×15 μm section thickness). The LV myocardial volume was measured by counting the number of grids on both LV myocardium and the scar region. We used the optical dissector method to determine the volume density of cardiomyocyte nuclei. The optical dissector operates optimally at 3 μm distance between lookup and counting frames. Adult mouse hearts were sectioned with a cryostat set at 15 μm. Slides were stained with α-actinin and Hoechst and imaged with an A1R laser-scanning confocal microscope (×60 oil lens).\nBriefly, the immunofluorescence stained sections were imaged using a Nikon A1R confocal microscope. We selected four random spots on the technically-best section from each slide and analyzed 20 random samples from each heart. The total number of positive cardiomyocyte nuclei per heart was counted and the mean per sample volume was calculated. Total number of cardiomyocytes (endowment) was calculated as: Number of cardiomyocytes=Number of cardiomyocyte nuclei/(Mono %+2×Bi %[…]+4×Tetra %).\nAdult mouse cardiac MRI: Mice were anesthetized with 4% isoflurane mixed with room air in an induction box for 1 to 3 minutes. The depth of anesthesia was monitored by toe reflex, extension of limbs, and spine positioning. Once an appropriate depth of anesthesia was established, mice were placed on a custom-built mouse holder and the anesthesia was maintained by 1.5 to 2% isoflurane with 100% oxygen via a nose cone. […] The respiration waveform was automatically processed to detect inspiration, expiration, and respiration rate. In-vivo cardiac MRI (CMR) was carried out on a Bruker Biospec 7T/30 system (Bruker Biospin MRI, Billerica, Mass.) with the 35-mm quadrature coil for both transmission and reception."}}, "data": [{"smiles": "CC(C)NCC(O)COc1cccc2ccccc12", "note": "(centres unmarked) [propranolol, 1-naphthalen-1-yloxy-3-(propan-2-ylamino)propan-2-ol]", "values": [{"measurement": "Ect2-positive midbodies", "setting": "[1]; human fetal cardiomyocytes in cytokinesis, immunofluorescence microscopy, FIG. 14D", "value": "increased"}, {"measurement": "block of the dobutamine-stimulated increase in cardiomyocyte cytokinesis failure", "setting": "[1]; propranolol 10 μM + dobutamine 10 μM, human fetal cardiomyocytes, FIG. 14C", "value": "completely"}, {"measurement": "inhibition of the dobutamine-stimulated increase in binucleated cardiomyocytes", "setting": "[2]", "value": "completely"}, {"measurement": "scar size, determined by histology", "setting": "[3]; 12 dpi, AFOG staining, vs control, FIG. 13K", "value": "not different"}, {"measurement": "region of myocardium affected by ischemia, visualized by LGE", "setting": "[3]; after MI, vs control, FIG. 13D, 13E", "value": "not different"}, {"measurement": "relative systolic thickening", "setting": "[3]; after MI, vs control, FIG. 13J", "value": "higher"}, {"measurement": "higher cardiomyocyte endowment after MI", "setting": "[3]; determined by stereology, vs control, FIG. 13L", "value": 30, "unit": "%"}, {"measurement": "increased cardiomyocyte endowment in adult hearts at baseline", "setting": "[3]; propranolol 10 μg/g, 2 i.p. injections per day, P1-12, P42, FIG. 13A", "value": "persisted until adulthood"}, {"measurement": "cardiac function (ejection fraction) of adult hearts at baseline", "setting": "[3]; propranolol P1-12, P60, FIG. 13B", "value": "did not alter"}, {"measurement": "thinned region of the LV myocardium after myocardial infarction", "setting": "[3]; recovery phase, vs control, FIG. 13H, 13I", "value": "significantly smaller"}, {"measurement": "MRI-measured ejection fraction", "setting": "[3]; twelve days after MI (recovery phase), FIG. 13F, 13G", "value": 42, "unit": "%"}, {"measurement": "infarct size by late gadolinium-enhancement vs control", "setting": "[3]; two days after MI (acute phase), FIG. 13D, 13E", "value": "same"}, {"measurement": "ejection fraction (MRI) vs control", "setting": "[3]; two days after MI (acute phase), FIG. 13F, 13G", "value": "same"}, {"measurement": "heart weight (heart weight to body weight ratio) after MI", "setting": "[3]; vs control, FIG. 13M", "value": "not changed"}]}]}
